In US12570642B2, “GLP-IR modulating compounds” (Gilead Sciences, Inc., priority 2021, dated 2026) one finds EC50 data, which are given here for 25 compounds.

As usually defined, the EC50 is the concentration giving half of the maximal effect. Lower therefore signals an effect from little substance.

Sequence of GLP-1R (P43220 24-463): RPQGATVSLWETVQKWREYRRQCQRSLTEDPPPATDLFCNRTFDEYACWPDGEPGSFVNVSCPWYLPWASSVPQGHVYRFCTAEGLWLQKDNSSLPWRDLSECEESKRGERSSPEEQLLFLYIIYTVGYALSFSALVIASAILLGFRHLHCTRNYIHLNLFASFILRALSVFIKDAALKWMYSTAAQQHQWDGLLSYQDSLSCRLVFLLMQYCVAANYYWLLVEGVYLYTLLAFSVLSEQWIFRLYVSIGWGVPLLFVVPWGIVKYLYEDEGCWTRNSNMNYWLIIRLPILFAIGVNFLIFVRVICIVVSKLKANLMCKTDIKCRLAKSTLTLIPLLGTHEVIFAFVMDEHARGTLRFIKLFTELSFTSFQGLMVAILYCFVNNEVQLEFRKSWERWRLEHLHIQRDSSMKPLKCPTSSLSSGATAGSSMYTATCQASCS

In this assay the target is GLP-1R (Homo sapiens, UniProt P43220). Kind of assay: GLP-1R Activation - cAMP Assay. The following applies: cAMP increase in CHO cells stably expressing GLP-1R; each compound run on one of the two cAMP assays (Assay 1 or Assay 2, not specified). Type of assay: cell-based. A digest of the protocol:
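CHO cells stably expressing GLP-1R, plated at 1,000 cells/well overnight, then equilibrated 1 h in HBSS with 20 mM Hepes and 0.1% BSA. Agonist added as 10-point dose response for 30 min at 37 °C. cAMP measured by HTRF (Cisbio Gs Dynamic kit); EC50 from sigmoidal fit.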
In general terms: Changes in cAMP serve as a functional read-out for many G protein-coupled receptors.
The compound `CO[C@H](C)Cn1c(Cc2cc(F)c(-c3cccc(OCc4ccc(-n5ccnn5)nc4)n3)cc2F)nc2c(F)cc(C(=O)O)cc21` [Example 352, (R)-2-(4-(6-((6-(1H-1,2,3-triazol-1-yl)pyridin-3-yl)methoxy)pyridin-2-yl)-2,5-difluorobenzyl)-4-fluoro-1-(2-methoxypropyl)-1H-benzo[d]imidazole-6-carboxylic acid] registered an EC50 of 0.535 nM.
As for `CO[C@H](C)Cn1c(Cc2cc(F)c(-c3cccc(OCc4cc(F)c(Cl)cc4F)n3)cc2F)nc2c(F)cc(C(=O)O)cc21` [Example 353, (R)-2-(4-(6-((4-chloro-2,5-difluorobenzyl)oxy)pyridin-2-yl)-2,5-difluorobenzyl)-4-fluoro-1-(2-methoxypropyl)-1H-benzo[d]imidazole-6-carboxylic acid], the figure is 1.18 nM.
As for `CO[C@H](C)Cn1c(Cc2cc(F)c(-c3cccc(OCc4ccc(-n5ccnn5)cc4F)n3)cc2F)nc2c(F)cc(C(=O)O)cc21` [Example 354, (R)-2-(2,5-difluoro-4-(6-((2-fluoro-4-(1H-1,2,3-triazol-1-yl)benzyl)oxy)pyridin-2-yl)benzyl)-4-fluoro-1-(2-methoxypropyl)-1H-benzo[d]imidazole-6-carboxylic acid], the figure is 0.528 nM.
`CO[C@H](C)Cn1c(Cc2cc(F)c(-c3cccc(OCc4ccc(C#N)cc4F)n3)cc2F)nc2c(F)cc(C(=O)O)cc21` [Example 355, (R)-2-(4-(6-((4-cyano-2-fluorobenzyl)oxy)pyridin-2-yl)-2,5-difluorobenzyl)-4-fluoro-1-(2-methoxypropyl)-1H-benzo[d]imidazole-6-carboxylic acid] showed an EC50 of 1.21 nM.
As for `CC1(C)COC[C@H]1n1c(Cc2cc(F)c(-c3cccc(OCc4ccc(C(F)F)cc4)n3)cc2F)nc2ccc(C(=O)O)cc21` [Example 357, (S)-2-(4-(6-((4-(difluoromethyl)benzyl)oxy)pyridin-2-yl)-2,5-difluorobenzyl)-1-(4,4-dimethyltetrahydrofuran-3-yl)-1H-benzo[d]imidazole-6-carboxylic acid], the figure is 0.171 nM; as for `CC1(C)COC[C@H]1n1c(Cc2cc(F)c(-c3cccc(OCc4ccc(C(F)(F)F)cc4)n3)cc2F)nc2ccc(C(=O)O)cc21` [Example 358, (S)-2-(2,5-difluoro-4-(6-((4-(trifluoromethyl)benzyl)oxy)pyridin-2-yl)benzyl)-1-(4,4-dimethyltetrahydrofuran-3-yl)-1H-benzo[d]imidazole-6-carboxylic acid], 0.124 nM.
In the case of `CC1(C)COC[C@H]1n1c(Cc2cc(F)c(-c3cccc(OCc4ccc(F)cc4)n3)cc2F)nc2ccc(C(=O)O)cc21` [Example 360, (S)-2-(2,5-difluoro-4-(6-((4-fluorobenzyl)oxy)pyridin-2-yl)benzyl)-1-(4,4-dimethyltetrahydrofuran-3-yl)-1H-benzo[d]imidazole-6-carboxylic acid] it was 0.079 nM; in that of `Cc1ccc(COc2cccc(-c3cc(F)c(Cc4nc5ccc(C(=O)O)cc5n4[C@@H]4COCC4(C)C)cc3F)n2)cc1` [Example 361, (S)-2-(2,5-difluoro-4-(6-((4-methylbenzyl)oxy)pyridin-2-yl)benzyl)-1-(4,4-dimethyltetrahydrofuran-3-yl)-1H-benzo[d]imidazole-6-carboxylic acid], 0.131 nM; in that of `CC1(C)COC[C@H]1n1c(Cc2c(F)cc(-c3cccc(OCc4ccc(C#N)cc4)n3)cc2F)nc2ccc(C(=O)O)cc21` [Example 362, (S)-2-(4-(6-((4-cyanobenzyl)oxy)pyridin-2-yl)-2,6-difluorobenzyl)-1-(4,4-dimethyltetrahydrofuran-3-yl)-1H-benzo[d]imidazole-6-carboxylic acid], 0.266 nM.
As for `CC1(C)COC[C@H]1n1c(Cc2cc(F)c(-c3cccc(OCc4ccccc4)n3)cc2F)nc2ccc(C(=O)O)cc21` [Example 363, (S)-2-(4-(6-(benzyloxy)pyridin-2-yl)-2,5-difluorobenzyl)-1-(4,4-dimethyltetrahydrofuran-3-yl)-1H-benzo[d]imidazole-6-carboxylic acid], the figure is 0.369 nM.
`CC1(C)COC[C@H]1n1c(Cc2ccc(-c3nc(OCc4ccc(C#N)cc4F)ccc3F)cc2F)nc2ccc(C(=O)O)cc21` [Example 364, (S)-2-(4-(6-((4-cyano-2-fluorobenzyl)oxy)-3-fluoropyridin-2-yl)-2-fluorobenzyl)-1-(4,4-dimethyltetrahydrofuran-3-yl)-1H-benzo[d]imidazole-6-carboxylic acid] showed an EC50 of 0.158 nM.
In the case of `CC1(C)COC[C@H]1n1c(Cc2cc(F)c(-c3nc(OCc4ccc(C#N)cc4F)ccc3F)cc2F)nc2c(F)cc(C(=O)O)cc21` [Example 365, (S)-2-(4-(6-((4-cyano-2-fluorobenzyl)oxy)-3-fluoropyridin-2-yl)-2,5-difluorobenzyl)-1-(4,4-dimethyltetrahydrofuran-3-yl)-4-fluoro-1H-benzo[d]imidazole-6-carboxylic acid] it was 0.124 nM.
In the case of `COCCn1c(Cc2cc(F)c(-c3ccc(F)c(OCc4ccc(C#N)cc4)n3)cc2F)nc2ccc(C(=O)O)c(F)c21` [Example 366, 2-(4-(6-((4-cyanobenzyl)oxy)-5-fluoropyridin-2-yl)-2,5-difluorobenzyl)-7-fluoro-1-(2-methoxyethyl)-1H-benzo[d]imidazole-6-carboxylic acid] it was 1.17 nM; in that of `CC1(C)COC[C@H]1n1c(Cc2cc(F)c(-c3cccc(OCc4ccc(Cl)cc4)n3)cc2F)nc2c(F)cc(C(=O)O)cc21` [Example 367, (S)-2-(4-(6-((4-chlorobenzyl)oxy)pyridin-2-yl)-2,5-difluorobenzyl)-1-(4,4-dimethyltetrahydrofuran-3-yl)-4-fluoro-1H-benzo[d]imidazole-6-carboxylic acid], 0.274 nM.
As for `CO[C@H](C)Cn1c(Cc2cc(F)c(-c3ccc(F)c(OCc4ccc(C#N)cc4F)n3)cc2F)nc2c(F)cc(C(=O)O)cc21` [Example 368, (R)-2-(4-(6-((4-cyano-2-fluorobenzyl)oxy)-5-fluoropyridin-2-yl)-2,5-difluorobenzyl)-4-fluoro-1-(2-methoxypropyl)-1H-benzo[d]imidazole-6-carboxylic acid], the figure is 0.562 nM; as for `CC1(C)COC[C@H]1n1c(Cc2ccc(-c3ccc(F)c(OCc4ccc(C#N)cc4F)n3)c(F)c2)nc2ccc(C(=O)O)cc21` [Example 369, (S)-2-(4-(6-((4-cyano-2-fluorobenzyl)oxy)-5-fluoropyridin-2-yl)-3-fluorobenzyl)-1-(4,4-dimethyltetrahydrofuran-3-yl)-1H-benzo[d]imidazole-6-carboxylic acid], 0.364 nM; as for `CC1(C)COC[C@H]1n1c(Cc2ccc(-c3ccc(F)c(OCc4ccc(C#N)cc4)n3)cc2F)nc2ccc(C(=O)O)cc21` [Example 370, (S)-2-(4-(6-((4-cyanobenzyl)oxy)-5-fluoropyridin-2-yl)-2-fluorobenzyl)-1-(4,4-dimethyltetrahydrofuran-3-yl)-1H-benzo[d]imidazole-6-carboxylic acid], 0.042 nM.
On to `CC1(C)COC[C@H]1n1c(Cc2ccc(-c3cccc(OCc4ccc(Cl)cc4)n3)cc2F)nc2ccc(C(=O)O)cc21` [Example 371, (S)-2-(4-(6-((4-chlorobenzyl)oxy)pyridin-2-yl)-2-fluorobenzyl)-1-(4,4-dimethyltetrahydrofuran-3-yl)-1H-benzo[d]imidazole-6-carboxylic acid], for which the EC50 was 0.127 nM.
The compound `CC1(C)COC[C@H]1n1c(Cc2ccc(-c3cccc(OCc4ccc(C#N)cc4)n3)cc2F)nc2c(F)cc(C(=O)O)cc21` [Example 372, (S)-2-(4-(6-((4-cyanobenzyl)oxy)pyridin-2-yl)-2-fluorobenzyl)-1-(4,4-dimethyltetrahydrofuran-3-yl)-4-fluoro-1H-benzo[d]imidazole-6-carboxylic acid] came in with an EC50 of 0.163 nM.
As for `CC1(C)COC[C@H]1n1c(Cc2ccc(-c3cccc(OCc4ccc(C#N)cc4)n3)cc2F)nc2ccc(C(=O)O)cc21` [Example 373, (S)-2-(4-(6-((4-cyanobenzyl)oxy)pyridin-2-yl)-2-fluorobenzyl)-1-(4,4-dimethyltetrahydrofuran-3-yl)-1H-benzo[d]imidazole-6-carboxylic acid], the figure is 0.294 nM; as for `COCCn1c(Cc2cc(F)c(-c3cccc(OCc4ccc(-n5ccnn5)cc4F)n3)cc2F)nc2ccc(C(=O)O)c(F)c21` [Example 374, 2-(2,5-difluoro-4-(6-((2-fluoro-4-(1H-1,2,3-triazol-1-yl)benzyl)oxy)pyridin-2-yl)benzyl)-7-fluoro-1-(2-methoxyethyl)-1H-benzo[d]imidazole-6-carboxylic acid], 0.571 nM.
In the case of `COCCn1c(Cc2cc(F)c(-c3cccc(OCc4ccc(C#N)cc4)n3)cc2F)nc2ccc(C(=O)O)c(F)c21` [Example 375, 2-(4-(6-((4-cyanobenzyl)oxy)pyridin-2-yl)-2,5-difluorobenzyl)-7-fluoro-1-(2-methoxyethyl)-1H-benzo[d]imidazole-6-carboxylic acid] it was 0.272 nM; in that of `CC1(C)COC[C@H]1n1c(Cc2cc(F)c(-c3cccc(OCc4ccc(C#N)cc4)n3)cc2F)nc2c(F)cc(C(=O)O)cc21` [Example 376, (S)-2-(4-(6-((4-cyanobenzyl)oxy)pyridin-2-yl)-2,5-difluorobenzyl)-1-(4,4-dimethyltetrahydrofuran-3-yl)-4-fluoro-1H-benzo[d]imidazole-6-carboxylic acid], 0.056 nM.
As for `COCCn1c(Cc2c(F)cc(-c3cccc(OCc4ccc(Cl)cc4)n3)c(F)c2F)nc2c(F)cc(C(=O)O)cc21` [Example 377, 2-(4-(6-((4-chlorobenzyl)oxy)pyridin-2-yl)-2,3,6-trifluorobenzyl)-4-fluoro-1-(2-methoxyethyl)-1H-benzo[d]imidazole-6-carboxylic acid], the figure is 0.188 nM.
`COCCn1c(Cc2c(F)cc(-c3cccc(OCc4ccc(C#N)cc4)n3)c(F)c2F)nc2c(F)cc(C(=O)O)cc21` [Example 378, 2-(4-(6-((4-cyanobenzyl)oxy)pyridin-2-yl)-2,3,6-trifluorobenzyl)-4-fluoro-1-(2-methoxyethyl)-1H-benzo[d]imidazole-6-carboxylic acid] returned an EC50 of 0.321 nM.
